Test results from patent US8192962B2, “Processes for detecting toxic substances” (Daikin Industries, Ltd., priority 2001, dated 2012).

Test system: Metabolism protein genes
Test: DNA chip mRNA expression in yeast, metabolism protein genes (Table 7)
Assay type: cell-based, Saccharomyces cerevisiae S288C
Summary of the method: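 First, S288C yeast grown in YPD at 25° C. are dosed in log phase with one toxicant (growth-inhibiting, not lethal) for 2 h. Next, total RNA is extracted and poly(A) mRNA isolated and reverse-transcribed with Cy3/Cy5-dUTP. Finally, whole-genome chip fluorescence is read relative to unexposed cells.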

C[S+](C)[O-] [(15), dimethylsulfoxide]
The level of expressed mRNA in the presence of chemical substance/The level of expressed mRNA in the absence of chemical substance (yeast gene YAL012W): 3.1 | The level of expressed mRNA in the presence of chemical substance/The level of expressed mRNA in the absence of chemical substance (yeast gene YAL038W): 3.1 | The level of expressed mRNA in the presence of chemical substance/The level of expressed mRNA in the absence of chemical substance (yeast gene YAL044C): 0.7 | The level of expressed mRNA in the presence of chemical substance/The level of expressed mRNA in the absence of chemical substance (yeast gene YAL054C): 0.9 | The level of expressed mRNA in the presence of chemical substance/The level of expressed mRNA in the absence of chemical substance (yeast gene YAR071W): 1.1 | The level of expressed mRNA in the presence of chemical substance/The level of expressed mRNA in the absence of chemical substance (yeast gene YBL001C): 1.0 | level of expressed mRNA in the presence/in the absence of chemical substance (yeast gene YBR003W): 0.7 | level of expressed mRNA in the presence/in the absence of chemical substance (yeast gene YBR011C): 2.1 | The level of expressed mRNA in the presence of chemical substance/The level of expressed mRNA in the absence of chemical substance (yeast gene YBR014C): 1.2 | level of expressed mRNA in the presence/in the absence of chemical substance (yeast gene YBR020W): 1.3 | The level of expressed mRNA in the presence of chemical substance/The level of expressed mRNA in the absence of chemical substance (yeast gene YBR023C): 2.8 | The level of expressed mRNA in the presence of chemical substance/The level of expressed mRNA in the absence of chemical substance (yeast gene YBR029C): 3.5 | The level of expressed mRNA in the presence of chemical substance/The level of expressed mRNA in the absence of chemical substance (yeast gene YBR035C): 0.7 | The level of expressed mRNA in the presence of chemical substance/The level of expressed mRNA in the absence of chemical substance (yeast gene YBR068C): 1.6 | The level of expressed mRNA in the presence of chemical substance/The level of expressed mRNA in the absence of chemical substance (yeast gene YBR111C): 0.7 | The level of expressed mRNA in the presence of chemical substance/The level of expressed mRNA in the absence of chemical substance (yeast gene YBR183W): 1.1 | The level of expressed mRNA in the presence of chemical substance/The level of expressed mRNA in the absence of chemical substance (yeast gene YBR256C): 1.6 | The level of expressed mRNA in the presence of chemical substance/The level of expressed mRNA in the absence of chemical substance (yeast gene YCL009C): 6.5 | level of expressed mRNA in the presence/in the absence of chemical substance (yeast gene YCR010C): 1.2 | level of expressed mRNA in the presence/in the absence of chemical substance (yeast gene YCR034W): 0.9 | The level of expressed mRNA in the presence of chemical substance/The level of expressed mRNA in the absence of chemical substance (yeast gene YCR037C): 1.0 | The level of expressed mRNA in the presence of chemical substance/The level of expressed mRNA in the absence of chemical substance (yeast gene YCR048W): 3.1 | The level of expressed mRNA in the presence of chemical substance/The level of expressed mRNA in the absence of chemical substance (yeast gene YCR098C): 11.0 | The level of expressed mRNA in the presence of chemical substance/The level of expressed mRNA in the absence of chemical substance (yeast gene YDL021W): 0.7 | The level of expressed mRNA in the presence of chemical substance/The level of expressed mRNA in the absence of chemical substance (yeast gene YDL022W): 0.9 | level of expressed mRNA in the presence/in the absence of chemical substance (yeast gene YDR050C): 1.9 | level of expressed mRNA in the presence/in the absence of chemical substance (yeast gene YDR073W): 0.8 | level of expressed mRNA in the presence/in the absence of chemical substance (yeast gene YDR123C): 1.2 | level of expressed mRNA in the presence/in the absence of chemical substance (yeast gene YDR178W): 0.7 | level of expressed mRNA in the presence/in the absence of chemical substance (yeast gene YDR277C): 0.4 | level of expressed mRNA in the presence/in the absence of chemical substance (yeast gene YDR284C): 0.9 | level of expressed mRNA in the presence/in the absence of chemical substance (yeast gene YDR345C): 0.8 | The level of expressed mRNA in the presence of chemical substance/The level of expressed mRNA in the absence of chemical substance (yeast gene YDR380W): 2.4 | level of expressed mRNA in the presence/in the absence of chemical substance (yeast gene YDR400W): 0.8 | level of expressed mRNA in the presence/in the absence of chemical substance (yeast gene YDR408C): 1.0 | The level of expressed mRNA in the presence of chemical substance/The level of expressed mRNA in the absence of chemical substance (yeast gene YDR410C): 1.2 | level of expressed mRNA in the presence/in the absence of chemical substance (yeast gene YDR483W): 1.5 | The level of expressed mRNA in the presence of chemical substance/The level of expressed mRNA in the absence of chemical substance (yeast gene YDR487C): 1.0 | The level of expressed mRNA in the presence of chemical substance/The level of expressed mRNA in the absence of chemical substance (yeast gene YDR502C): 8.2 | The level of expressed mRNA in the presence of chemical substance/The level of expressed mRNA in the absence of chemical substance (yeast gene YDR516C): 0.4 | The level of expressed mRNA in the presence of chemical substance/The level of expressed mRNA in the absence of chemical substance (yeast gene YEL011W): 0.4 | level of expressed mRNA in the presence/in the absence of chemical substance (yeast gene YEL063C): 1.3 | level of expressed mRNA in the presence/in the absence of chemical substance (yeast gene YER015W): 0.8 | The level of expressed mRNA in the presence of chemical substance/The level of expressed mRNA in the absence of chemical substance (yeast gene YER026C): 4.0 | The level of expressed mRNA in the presence of chemical substance/The level of expressed mRNA in the absence of chemical substance (yeast gene YER053C): 1.1 | level of expressed mRNA in the presence/in the absence of chemical substance (yeast gene YER081W): 0.5 | The level of expressed mRNA in the presence of chemical substance/The level of expressed mRNA in the absence of chemical substance (yeast gene YER096W): 1.4 | level of expressed mRNA in the presence/in the absence of chemical substance (yeast gene YER120W): 1.5 | The level of expressed mRNA in the presence of chemical substance/The level of expressed mRNA in the absence of chemical substance (yeast gene YER178W): 1.8 | level of expressed mRNA in the presence/in the absence of chemical substance (yeast gene YFL011W): 1.7 | The level of expressed mRNA in the presence of chemical substance/The level of expressed mRNA in the absence of chemical substance (yeast gene YFL014W): 6.3 | The level of expressed mRNA in the presence of chemical substance/The level of expressed mRNA in the absence of chemical substance (yeast gene YFL030W): 1.1 | The level of expressed mRNA in the presence of chemical substance/The level of expressed mRNA in the absence of chemical substance (yeast gene YFL056C): 5.0 | The level of expressed mRNA in the presence of chemical substance/The level of expressed mRNA in the absence of chemical substance (yeast gene YFR015C): 0.4 | The level of expressed mRNA in the presence of chemical substance/The level of expressed mRNA in the absence of chemical substance (yeast gene YFR047C): 0.6 | The level of expressed mRNA in the presence of chemical substance/The level of expressed mRNA in the absence of chemical substance (yeast gene YGL001C): 0.9 | level of expressed mRNA in the presence/in the absence of chemical substance (yeast gene YGL012W): 0.6 | The level of expressed mRNA in the presence of chemical substance/The level of expressed mRNA in the absence of chemical substance (yeast gene YGL022W): 4.0 | The level of expressed mRNA in the presence of chemical substance/The level of expressed mRNA in the absence of chemical substance (yeast gene YGL104C): 0.9 | level of expressed mRNA in the presence/in the absence of chemical substance (yeast gene YGL115W): 0.7 | The level of expressed mRNA in the presence of chemical substance/The level of expressed mRNA in the absence of chemical substance (yeast gene YGL126W): 2.8 | The level of expressed mRNA in the presence of chemical substance/The level of expressed mRNA in the absence of chemical substance (yeast gene YGL154C): 0.8 | level of expressed mRNA in the presence/in the absence of chemical substance (yeast gene YGL205W): 2.0 | The level of expressed mRNA in the presence of chemical substance/The level of expressed mRNA in the absence of chemical substance (yeast gene YGL248W): 1.8 | The level of expressed mRNA in the presence of chemical substance/The level of expressed mRNA in the absence of chemical substance (yeast gene YGL253W): 0.8 | The level of expressed mRNA in the presence of chemical substance/The level of expressed mRNA in the absence of chemical substance (yeast gene YGR037C): 1.5 | The level of expressed mRNA in the presence of chemical substance/The level of expressed mRNA in the absence of chemical substance (yeast gene YGR060W): 1.4 | level of expressed mRNA in the presence/in the absence of chemical substance (yeast gene YGR096W): 0.9 | level of expressed mRNA in the presence/in the absence of chemical substance (yeast gene YGR191W): 1.5 | The level of expressed mRNA in the presence of chemical substance/The level of expressed mRNA in the absence of chemical substance (yeast gene YGR194C): 0.6 | level of expressed mRNA in the presence/in the absence of chemical substance (yeast gene YGR204W): 1.6 | level of expressed mRNA in the presence/in the absence of chemical substance (yeast gene YGR288W): 0.8 | level of expressed mRNA in the presence/in the absence of chemical substance (yeast gene YHR025W): 2.1 | The level of expressed mRNA in the presence of chemical substance/The level of expressed mRNA in the absence of chemical substance (yeast gene YHR037W): 1.1 | The level of expressed mRNA in the presence of chemical substance/The level of expressed mRNA in the absence of chemical substance (yeast gene YHR092C): 0.2 | The level of expressed mRNA in the presence of chemical substance/The level of expressed mRNA in the absence of chemical substance (yeast gene YHR111W): 1.1 | level of expressed mRNA in the presence/in the absence of chemical substance (yeast gene YHR123W): 2.3 | The level of expressed mRNA in the presence of chemical substance/The level of expressed mRNA in the absence of chemical substance (yeast gene YHR137W): 2.8 | The level of expressed mRNA in the presence of chemical substance/The level of expressed mRNA in the absence of chemical substance (yeast gene YHR174W): 2.0 | The level of expressed mRNA in the presence of chemical substance/The level of expressed mRNA in the absence of chemical substance (yeast gene YHR176W): 1.5 | The level of expressed mRNA in the presence of chemical substance/The level of expressed mRNA in the absence of chemical substance (yeast gene YHR190W): 1.3 | level of expressed mRNA in the presence/in the absence of chemical substance (yeast gene YHR210C): 0.5 | level of expressed mRNA in the presence/in the absence of chemical substance (yeast gene YIL006W): 1.5 | The level of expressed mRNA in the presence of chemical substance/The level of expressed mRNA in the absence of chemical substance (yeast gene YIL033C): 1.0 | The level of expressed mRNA in the presence of chemical substance/The level of expressed mRNA in the absence of chemical substance (yeast gene YIL045W): 0.6 | The level of expressed mRNA in the presence of chemical substance/The level of expressed mRNA in the absence of chemical substance (yeast gene YIL107C): 1.0 | The level of expressed mRNA in the presence of chemical substance/The level of expressed mRNA in the absence of chemical substance (yeast gene YIL154C): 4.3 | The level of expressed mRNA in the presence of chemical substance/The level of expressed mRNA in the absence of chemical substance (yeast gene YIL155C): 1.4 | The level of expressed mRNA in the presence of chemical substance/The level of expressed mRNA in the absence of chemical substance (yeast gene YIL167W): 0.6 | The level of expressed mRNA in the presence of chemical substance/The level of expressed mRNA in the absence of chemical substance (yeast gene YIR036C): 1.1
